Tests used:
Assay in all cases: relative viability (nuclei count vs DMSO), 5 days (fraction); higher = more cells survive
XMD8-85 + Palbociclib = compound: CN1CCN(CC1)C2=CC(=C(C=C2)NC3=NC=C4C(=N3)N(C5=CC=CC=C5C(=O)N4C)C)OC [XMD8-85] + CC(=O)c1c(C)c2cnc(Nc3ccc(N4CCNCC4)cn3)nc2n(C2CCCC2)c1=O [Palbociclib] (partner 0.5 µM)
In short: (§1)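 Each reported value is a median over duplicate plates. It expresses relative viability: treated-well nuclei count divided by vehicle-well nuclei count. Lung cancer cell lines in 1536-well plates were dosed by pin tool a day after seeding, alone with one drug or with a fixed anchor-drug dose plus five library-drug doses (not always all listed) in √10 steps, and nuclei were counted after 5 days.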

XMD8-85 + Linsitinib = compound: CN1CCN(CC1)C2=CC(=C(C=C2)NC3=NC=C4C(=N3)N(C5=CC=CC=C5C(=O)N4C)C)OC [XMD8-85] + C[C@]1(O)C[C@@H](c2nc(-c3ccc4ccc(-c5ccccc5)nc4c3)c3c(N)nccn32)C1 [Linsitinib] (partner 1 µM)
In short: as §1

XMD8-85 + Trametinib = compound: CN1CCN(CC1)C2=CC(=C(C=C2)NC3=NC=C4C(=N3)N(C5=CC=CC=C5C(=O)N4C)C)OC [XMD8-85] + CC(=O)Nc1cccc(-n2c(=O)n(C3CC3)c(=O)c3c(Nc4ccc(I)cc4F)n(C)c(=O)c(C)c32)c1 [Trametinib] (partner 0.02 µM)
In short: as §1

XMD8-85 + Navitoclax = compound: CN1CCN(CC1)C2=CC(=C(C=C2)NC3=NC=C4C(=N3)N(C5=CC=CC=C5C(=O)N4C)C)OC [XMD8-85] + CC1(C)CCC(c2ccc(Cl)cc2)=C(CN2CCN(c3ccc(C(=O)NS(=O)(=O)c4ccc(N[C@H](CCN5CCOCC5)CSc5ccccc5)c(S(=O)(=O)C(F)(F)F)c4)cc3)CC2)C1 [Navitoclax] (partner 0.5 µM)
In short: as §1

Cell Line | relative viability (XMD8-85 + Palbociclib; first compound 0.08 µM) | relative viability (XMD8-85 + Palbociclib; first compound 0.253 µM) | relative viability (XMD8-85 + Palbociclib; first compound 0.8 µM) | relative viability (XMD8-85 + Palbociclib; first compound 2.53 µM) | relative viability (XMD8-85 + Palbociclib; first compound 8 µM) | relative viability (XMD8-85 + Linsitinib; first compound 0.08 µM) | relative viability (XMD8-85 + Linsitinib; first compound 0.253 µM) | relative viability (XMD8-85 + Linsitinib; first compound 0.8 µM) | relative viability (XMD8-85 + Linsitinib; first compound 2.53 µM) | relative viability (XMD8-85 + Linsitinib; first compound 8 µM) | relative viability (XMD8-85 + Trametinib; first compound 0.08 µM) | relative viability (XMD8-85 + Trametinib; first compound 0.253 µM) | relative viability (XMD8-85 + Trametinib; first compound 0.8 µM) | relative viability (XMD8-85 + Trametinib; first compound 2.53 µM) | relative viability (XMD8-85 + Trametinib; first compound 8 µM) | relative viability (XMD8-85 + Navitoclax; first compound 0.08 µM) | relative viability (XMD8-85 + Navitoclax; first compound 0.253 µM) | relative viability (XMD8-85 + Navitoclax; first compound 0.8 µM) | relative viability (XMD8-85 + Navitoclax; first compound 2.53 µM) | relative viability (XMD8-85 + Navitoclax; first compound 8 µM)
NCI-H838 | 0.224 | 0.197 | 0.227 | 0.251 | 0.184 | 0.979 | 0.958 | 1.2 | 1 | 0.507 | 0.529 | 0.48 | 0.516 | 0.617 | 0.334 | 1.15 | 1.13 | 1.16 | 1.15 | 0.536
COR-L 105 | 0.421 | 0.423 | 0.368 | 0.382 | 0.409 | 0.913 | 1.02 | 0.779 | 0.902 | 0.372 | 0.432 | 0.465 | 0.433 | 0.506 | 0.437 | 0.83 | 0.819 | 0.738 | 0.563 | 0.337
HCC-366 | 0.316 | 0.298 | 0.375 | 0.291 | 0.196 | 0.69 | 0.687 | 0.764 |  | 0.352 | 0.33 | 0.35 | 0.467 | 0.324 | 0.307 | 1.12 | 1.06 | 1.27 | 1.06 | 0.63
NCI-H650 | 0.275 | 0.32 | 0.302 | 0.288 | 0.255 | 0.925 | 0.74 | 0.811 | 0.826 | 0.371 | 0.904 | 1 | 0.977 | 0.94 | 0.601 |  |  |  |  | 
NCI-H1299 |  |  |  |  |  | 0.881 | 1.06 | 0.973 | 0.981 | 0.654 |  |  |  |  |  | 1.1 | 1.06 | 1.06 | 1 | 0.804
LCLC-97TM1 | 0.192 | 0.188 | 0.188 | 0.204 | 0.239 | 0.168 | 0.218 | 0.176 | 0.199 | 0.232 | 0.178 | 0.174 | 0.218 | 0.153 | 0.116 | 0.299 | 0.474 | 0.442 | 0.329 | 0.796
NCI-H1666 | 0.679 | 0.656 | 0.606 | 0.632 | 0.645 | 1.04 | 0.79 | 0.859 | 0.769 | 0.696 | 0.918 | 0.868 | 0.852 | 0.947 | 0.794 | 0.932 | 1 | 0.865 | 0.729 | 0.727
NCI-H1993 | 0.564 | 0.595 | 0.612 | 0.692 | 0.61 | 0.814 | 0.669 | 0.812 | 0.718 | 0.704 | 0.484 | 0.436 | 0.537 | 0.494 | 0.381 | 0.848 |  | 0.885 | 0.968 | 0.766
BEN | 0.466 | 0.449 | 0.475 | 0.446 | 0.463 | 0.692 | 0.923 | 0.802 | 0.683 | 0.584 | 0.866 | 1 | 0.983 | 0.829 | 0.681 | 0.0618 | 0.0742 | 0.437 | 0.0692 | 0.0637
HCC-827 | 0.505 | 0.472 | 0.424 | 0.505 | 0.467 | 0.934 | 0.975 | 1.02 | 0.97 | 0.974 | 0.55 | 0.461 | 0.528 | 0.512 | 0.496 | 1.02 | 1.01 | 0.985 | 0.909 | 1.03
HOP-62 | 0.512 | 0.463 |  | 0.378 | 0.246 | 1.15 | 0.966 | 0.87 | 0.814 |  | 0.368 | 0.378 | 0.34 | 0.339 | 0.129 | 0.996 | 1.08 | 0.939 | 0.992 | 0.79
NCI-H1355 | 0.395 | 0.365 |  | 0.619 | 0.306 | 0.807 | 0.913 | 0.828 | 0.715 | 0.829 | 0.414 | 0.424 | 0.384 | 0.356 | 0.284 | 1.06 | 1.01 | 0.977 | 0.862 | 0.804
A549 |  |  |  |  |  | 0.602 | 0.476 | 0.579 | 0.592 | 0.594 |  |  |  |  |  | 1.33 | 1.24 | 1.28 | 1.19 | 0.933
A-427 | 0.521 | 0.544 | 0.571 | 0.52 | 0.463 | 1.24 | 1.18 | 1.11 | 1.16 | 1.02 | 0.755 | 0.731 | 0.697 | 0.714 | 0.631 | 0.993 | 0.995 | 1.03 | 1.03 | 0.95
NCI-H358 | 0.244 | 0.126 | 0.138 | 0.155 | 0.132 | 0.756 | 0.832 |  | 0.643 | 0.442 | 0.111 | 0.139 | 0.128 | 0.11 | 0.132 |  |  |  |  | 
NCI-H23 | 0.488 |  | 0.525 | 0.441 | 0.413 | 0.545 | 0.611 | 0.547 | 0.513 |  | 0.419 | 0.402 | 0.369 | 0.28 | 0.24 | 0.878 | 1.22 | 0.686 | 0.657 | 0.544
LXF-289 | 0.581 | 0.615 | 0.561 | 0.658 | 0.54 | 0.916 | 0.927 | 0.964 | 1.01 | 0.883 | 0.658 | 0.646 | 0.696 | 0.728 | 0.656 | 0.831 | 0.867 | 0.951 | 0.974 | 0.811

Source: the supplement of paper PMC10307832
